These results are taken from patent US9018214B2, “Bicyclic heterocycle compounds and their uses in therapy” (Astex Therapeutics Limited, priority 2011, dated 2015).

The target of assay [1] is BIR3 domain of human cIAP-1 (residues 267-363) (Homo sapiens (Human), UniProt Q13490). Put plainly: cIAP-1 in vitro competitive displacement binding assay (fluorescence polarization; Probe A AVPIK(5&6FAM)-amide or Probe B AbuRPFK(5&6FAM)-amide). In general terms: Polarisation of emitted light reports the rotation of a fluorescent probe.
The subject of assay [2] is EVSA-T (human breast carcinoma). Briefly: Anti-proliferative activity, Alamar Blue assay, EVSA-T. Format: cell-based. The settings on record: Homo sapiens, EVSA-T; for pEC50: 72 h. A general note: Alamar Blue is a resazurin reagent that responds to reducing activity.
Where [3] appears, read: Probe A AVPIK(5&6FAM)-amide, read-out: IC50 or PI cIAP1: IC50.

pEC50, pIC50: −log10 of the molar value. Counter-ions that a name gives are not always drawn. Like-named read-outs stand apart in the source and are kept apart here.

With `C[C@@H]1CN(CC(=O)N2CCc3ccc(Cc4ccccc4)cc32)CCN1` [Example 29, 1-(6-Benzyl-2,3-dihydro-indol-1-yl)-2-((R)-3-methyl-piperazin-1-yl)-ethanone hydrochloride salt], the pIC50 (in general, the IC50 on a negative log10 scale, so that one unit is a factor of ten) in assay [1] is above 5.00; in assay [1] (setting [3]) it was 5.85. Besides, the negative-log EC50 (pEC50) (as a rule, −log10 of the EC50, conventionally taken in molar units) in assay [2] (read-out: EC50, inhibition of cell growth) was above 5.00; in assay [2] (read-out: EVSA-T prolif (EC50)), 5.34.
Consider `C[C@@H]1CN(CC(=O)N2CCc3cnc(Cc4ccccc4)cc32)CCN1` [Example 35, 1-(6-Benzyl-2,3-dihydro-pyrrolo[3,2-c]pyridin-1-yl)-2-((R)-3-methyl-piperazin-1-yl)-ethanone hydrochloride salt], for which the pIC50 in assay [1] is above 6.00; in assay [1] (setting [3]), 6.02. Besides, the inhibition (commonly how much of the control response was suppressed) at 10 µM in assay [2] (read-out: EVSA-T prolif: % inhibition) turned out to be 28%.
As to `COC[C@H]1CN[C@H](C)CN1CC(=O)N1CC(C)(C)c2ccc(Cl)cc21` [Example 44, 1-(6-Chloro-3,3-dimethyl-2,3-dihydro-indol-1-yl)-2-((2R,5R)-2-methoxymethyl-5-methyl-piperazin-1-yl)-ethanone hydrochloride salt], the pEC50 in assay [2] (read-out: EVSA-T prolif (EC50)) is 5.18.
On to `COC[C@H]1CN[C@H](C)CN1CC(=O)N1CC(C)(C)c2cnc(Cl)cc21` [Example 62, 1-(6-Chloro-3,3-dimethyl-2,3-dihydro-pyrrolo[3,2-c]pyridin-1-yl)-2-((2R,5R)-2-methoxy-methyl-5-methyl-piperazin-1-yl)-ethanone hydrochloride salt], for which the pEC50 in assay [2] (read-out: EVSA-T prolif (EC50)) is 5.42.
Same read-out and setting: the figure for `COC[C@H]1CN[C@H](C)CN1CC(=O)N1CC(C)(C)c2cnc(CCC(C)C)cc21` [Example 75, 1-[3,3-Dimethyl-6-(3-methyl-butyl)-2,3-dihydro-pyrrolo[3,2-c]pyridin-1-yl]-2-((2R,5R)-2-methoxy-methyl-5-methyl-piperazin-1-yl)-ethanone] is 6.30; for `COC[C@H]1CN[C@H](C)CN1CC(=O)N1CC(C)(C)c2cnc(C(OC)c3ccccc3)cc21` (stereo partly drawn) [Example 132, 1-{6-[Methoxy(phenyl)methyl]-3,3-dimethyl-1H,2H,3H-pyrrolo[3,2-c]pyridin-1-yl}-2-[(2R,5R)-2-(methoxymethyl)-5-methylpiperazin-1-yl]ethan-1-one dihydrochloride] it is 6.18; for `C[C@@H]1CN(CC(=O)N2CC(C)(C)c3ncc(C(F)(F)c4ccccc4)cc32)[C@@H](CN2CCCC2=O)CN1` [Example 210, 1-{[(2R,5R)-1-(2-{6-[Difluoro(phenyl)methyl]-3,3-dimethyl-1H,2H,3H-pyrrolo[3,2-b]pyridin-1-yl}-2-oxoethyl)-5-methylpiperazin-2-yl]methyl}pyrrolidin-2-one hydrochloride] it is 7.27.
Still for that read-out and setting: the figure for `CCCC(F)(F)c1cnc2c(c1)N(C(=O)CN1C[C@@H](C)NC[C@@H]1CN1CCCC1=O)CC2(C)C` [Example 217, 1-{[(2R,5R)-1-{2-[6-(1,1-Difluorobutyl)-3,3-dimethyl-1H,2H,3H-pyrrolo[3,2-b]pyridin-1-yl]-2-oxoethyl}-5-methylpiperazin-2-yl]methyl}pyrrolidin-2-one hydrochloride] is 7.30.
On the same count and under the same terms, under `C[C@@H]1CN(CC(=O)N2CC(C)(C)c3cnc(Cc4ccc(F)cc4F)cc32)[C@@H](CN2CCCC2)CN1` [Example 220, 1-{6-[(2,4-Difluorophenyl)methyl]-3,3-dimethyl-1H,2H,3H-pyrrolo[3,2-c]pyridin-1-yl}-2-[(2R,5R)-5-methyl-2-(pyrrolidin-1-ylmethyl)piperazin-1-yl]ethan-1-one dihydrochloride] stands 7.31; under `CC(C)CC(F)(F)c1cnc2c(c1)N(C(=O)CN1C[C@@H](C)NC[C@@H]1CN1CCOCC1)CC2(C)C` [Example 235, 1-[6-(1,1-Difluoro-3-methylbutyl)-3,3-dimethyl-1H,2H,3H-pyrrolo[3,2-b]pyridin-1-yl]-2-[(2R,5R)-5-methyl-2-(morpholin-4-ylmethyl)piperazin-1-yl]ethan-1-one], 7.51.
